Here are results for 24 molecules from US4962096A, “Heterocyclic glycerol derivatives and their use as anti-hypertensive agents” (Nippon Chemiphar Co., Ltd., priority 1987, dated 1990).

One assay has as its system platelet. The experiment in a line: Platelet aggregation action in platelet rich plasma. In kind it is cell-based. The conditions noted are these: rabbit PRP, 300,000 platelets/mm^3, final concentration 2×10^-10 to 2×10^-4 M, unit inferred. As to the method:
A male Japanese white rabbit was anesthetized by pentobarbital, and a blood was collected in aqueous 3.13% sodium citrate solution at its carotid. The blood containing 1/10 volume ratio of the sodium citrate solution was treated in a conventional manner to give a platelet rich plasma (PRP) and a platelet poor plasma (PPP) for performing the following experiment.
(§1) PRP was diluted with PPP to give a sample containing platelets at 300,000/mm^3.
Aggregation of platelet was determined by means of Platelet Aggregation Tracer PAT-4A(available from Niko Bioscience Co., Ltd., Japan). 10 μl of a test solution was added to 190 μl of PRP to give a final concentration of 2×10^-10 to 2×10^-4 M, and an aggregation curve is recorded. For the preparation of the test solution, a saline solution containing 0.25% bovine serum albumin.
According to the aggregation curve obtained for each of the following compound of the present invention, following EC50 value was obtained.

The subject of the next assay is Male Wistar rats. The experiment in a line: Blood pressure reducing action: intravenous injection (MABP50). In kind it is in vivo, rat. The conditions noted are these: anesthetized male Wistar rats, injection in saline with 0.25% bovine serum albumin, from dose-response curve; for ED (50 mmHg): Rattus norvegicus, iv, read-out: MABP50 (dose required for reducing a mean blood pressure by 50 mmHg). Here is the method:
Male Wistar rats (mean body weight: 420 g) were anesthetized by intraperitoneal injection of 50 mg/kg of pentobarbital sodium, and their blood pressures were measured at left femoral artery. Subsequently, a compound to be tested was dissolved in a saline solution containing 0.25% bovine serum albumin and injected into the rat through the right femoral artery.
A dose-response curve was prepared from the obtained values for each of the following compounds of the present invention to determine a dose required for reducing a mean blood pressure by 50 mmHg (MABP50).

Assay [1] relates to Male spontaneously hypertensive rats. The experiment in a line: Blood pressure reducing action: oral administration. The assay is classed as in vivo, rat. As to the method:
Male spontaneously hypertensive rats (average body weight: 359 g) were anesthetized with ether. Blood pressure was measured for each rat through cannulation at its left femoral artery. A compound to be tested was dissolved in a distilled water and the resulting aqueous solution was administered orally.

In assay [2] the test system is PAF-induced platelet aggregation. Briefly: Inhibitory effect on PAF-induced platelet aggregation. The assay is classed as cell-based. The settings on record: rabbit PRP; PAF 1×10^-8 M, test concentration not readable. Here is the method:
In the same manner as above, a platelet rich plasma (PRP) and a platelet poor plasma (PPP) were prepared for performing the following experiment.
as §1
10 μl of a test solution was added to 180 μl of PRP. To the resulting mixture was added 10 μl of a solution of a commercially available PAF (No.P-4904, available from Sigma Corp.) to give a concentration of 1×10^-8 M, and aggregation was observed. For the preparation of the test solution and the PAF solution, a saline solution containing 0.25% bovine serum albumin was employed.
The effect of the test sample for suppressing aggregation was obtained in terms of a degree of suppression of the maximum aggregation in the control PRP caused by the PAF.

Setting [3] is: Oryctolagus cuniculus, Platelet.

In turn, `CCCCCCCCCCCCCCCCOCC(COP(=O)([O-])OC1CC2CCC(C1)[N+]2(C)C)OC(C)=O` (stereo not drawn) [B, 2-acetyloxy-3-hexadecyloxypropyl endo-8,8-dimethyl-8-azoniabicyclo[3,2,1]-3-octyl phosphate] showed a 50% effective concentration (EC50) with platelet (setting [3]) of 2.3 nM. Moreover, in the assay with Male Wistar rats, the ED (50 mmHg) is 0.12 µg/kg.
Take `CCCCCCCCCCCCCCCCOCC(COP(=O)([O-])OCCc1sc[n+](C)c1C)OC(C)=O` (stereo not drawn) [T, 2-acetyloxy-3-hexadecyloxypropyl 3,4-dimethylthiazolio-5-ylethyl phosphate]: the EC50 in the assay with platelet (setting [3]) was 3.2 nM. The “Change of Blood Pressure About 30 min. after Administration” value (“Change” for short) in assay [1] (10 mg/kg) is -35.3 mmHg. Further, the ED (50 mmHg) in the assay on Male Wistar rats amounted to 0.00023 µg/kg.
For `CCCCCCCCCCCCCCCCOCC(COP(=O)([O-])OC(c1ccccc1)C1CCC[N+]1(C)C)OC(C)=O` (stereo not drawn) [M, 2-Acetyloxy-3-hexadecyloxypropyl erythro-1,1-dimethylpyrrolidinio-2-ylphenylmethyl phosphate], the “degree of suppression of the maximum aggregation caused by the PAF” value (shortened to “degree”) in assay [2] stood at 100%.
`CCCCCCCCCCCCCCCCOCC(COP(=O)([O-])OCC1CSC(c2ccccc2)[N+]1(C)C)OC(C)=O` (single isomer, unassigned) [S(Product B), 2-acetyloxy-3-hexadecyloxypropyl 3,3-dimethyl-2-phenyl-1,3-thiazolidinio-4-ylmethyl phosphate] registered an EC50 in the assay with platelet of 740 nM. For the same molecule, the “MABP50 (dose required for reducing a mean blood pressure by 50 mmHg)” value with Male Wistar rats was 0.35 µg/kg.
`CCCCCCCCCCCCCCCCOCC(COP(=O)([O-])OCC1CCCC[N+]1(C)C)OCc1ccccc1` (stereo not drawn) [L, 2-Benzyloxy-3-hexadecyloxypropyl 1,1-dimethylpiperidinio-2-ylmethyl phosphate]: the “degree” value in assay [2] was found to be 55%.
With `CCCCCCCCCCCCCCCCOCC(COP(=O)([O-])OCC1CCc2ccccc2[N+]1(C)C)OC(C)=O` (stereo not drawn) [P, 2-acetyloxy-3-hexadecyloxypropyl 1,1-dimethyl-1,2,3,4-tetrahydroquinolinio-2-ylmethyl phosphate], it took 50 nM to reach a half-maximal effect in the assay with platelet (setting [3]) (EC50). The ED (50 mmHg) in the assay with Male Wistar rats was found to be 0.11 µg/kg.
The corresponding values for `CCCCCCCCCCCCCCCCOCC(COP(=O)([O-])OCC1CCCC[N+]1(C)C)OC(C)=O` (stereo not drawn) [Compound E, 2-acetyloxy-3-hexadecyloxypropyl 1,1-dimethylpiperidinio-2-ylmethyl phosphate] are 10 nM and 0.132 µg/kg.
With `CCCCCCCCCCCCCCCCOC(C)C(COP(=O)([O-])OC(c1ccccc1)C1CCC[N+]1(C)C)OCc1ccccc1` (stereo not drawn) [I, 2-Benzyloxy-3-hexadecyloxybutyl erythro-1,1-dimethylpyrrolidinio-2-ylphenylmethyl phosphate], the “degree” value in assay [2] was found to be 100%.
For the molecule `CCCCCCCCCCCCCCCCOCC(COP(=O)([O-])OCCC1CCC[N+]1(C)C)OC(C)=O` (stereo not drawn) [H, 2-acetyloxy-3-hexadecyloxypropyl 2-(1,1-dimethylpyrrolidinio-2-yl)ethylphosphate], it took 2.4 nM to reach a half-maximal effect with platelet (setting [3]) (EC50). Besides, the ED (50 mmHg) in the assay on Male Wistar rats was found to be 0.058 µg/kg.
The molecule `CCCCCCCCCCCCCCCCOC(C)C(COP(=O)([O-])OCCc1sc[n+](C)c1C)OC(C)=O` (stereo not drawn) [W, 2-acetyloxy-3-hexadecyloxybutyl 3,4-dimethylthiazolio-5-ylethyl phosphate] had an EC50 with platelet (setting [3]) of 73 nM. Moreover, in assay [1] (1 mg/kg), the “Change” value is -36.0 mmHg. Also, the ED (50 mmHg) in the assay on Male Wistar rats came to 0.067 µg/kg.
Consider `CCCCCCCCCCCCCCCCOCC(COP(=O)([O-])OCC1=CCC[N+](C)(C)C1)OC(C)=O` (stereo not drawn) [R, 2-acetyloxy-3-hexadecyloxypropyl 1,1-dimethyl-1,2,5,6-tetrahydropyridinio-3-ylmethyl phosphate], for which the ED (50 mmHg) in the assay with Male Wistar rats turned out to be 0.024 µg/kg.
In the assay with platelet (setting [3]), `CCCCCCCCCCCCCCCCOC(C)C(COP(=O)([O-])OC1C[N+]2(C)CCC1CC2)OC(C)=O` (stereo not drawn) [C, 2-acetyloxy-3-hexadecyloxybutyl 1-methyl-1-azoniabicyclo[2,2,2]-3-octylphosphate] came in with an EC50 of 5.2 nM. Besides, in assay [1] (3 mg/kg), the “Change” value is recorded as -64.5 mmHg. Also, in the assay on Male Wistar rats, the ED (50 mmHg) came to 0.099 µg/kg.
Take `CCCCCCCCCCCCCCCCOCC(COP(=O)([O-])OC1C[N+]2(C)CCC1CC2)OC(C)=O` (stereo not drawn) [A, 2-acetyloxy-3-hexadecyloxypropyl 1-methyl-1-azoniabicyclo[2,2,2]-3-octyl phosphate]: the EC50 in the assay on platelet (setting [3]) is 0.76 nM. For the same molecule, the ED (50 mmHg) with Male Wistar rats came out at 0.005 µg/kg.
The matching figures for `CCCCCCCCCCCCCCCCOCC(COP(=O)([O-])OCC1CCC[N+](C)(C)C1)OC(C)=O` (stereo not drawn) [F, 2-acetyloxy-3-hexadecyloxypropyl 1,1-dimethylpiperidinio-3-ylmethyl phosphate]: 1.5 nM and 0.058 µg/kg.
The matching figures for `CCCCCCCCCCCCCCCCOCC(COP(=O)([O-])OCC1CC[N+](C)(C)CC1)OC(C)=O` (stereo not drawn) [G, 2-acetyloxy-3-hexadecyloxypropyl 1,1-dimethylpiperidinio-4-ylmethyl phosphate]: 90 nM and 0.97 µg/kg.
The molecule `CCCCCCCCCCCCCCCCOCC(COP(=O)([O-])OCC1CSC[N+]1(C)C)OC(C)=O` (stereo not drawn) [Q, 2-acetyloxy-3-hexadecyloxypropyl 3,3-dimethyl-1,3-thiazolidinio-4-ylmethyl phosphate] gave a 50% effective concentration (EC50) in the assay with platelet (setting [3]) of 0.52 nM. Also, the ED (50 mmHg) with Male Wistar rats turned out to be 0.032 µg/kg.
With `CCCCCCCCCCCCCCCCOCC(COP(=O)([O-])OC(c1ccccc1)C1CCC[N+]1(C)C)OCc1ccccc1` (stereo not drawn) [K, 2-Benzyloxy-3-hexadecyloxypropyl threo-1,1-dimethylpyrrolidinio-2-ylphenylmethyl phosphate], the “degree” value in assay [2] worked out at 73%.
`CCCCCCCCCCCCCCCCOCC(COP(=O)([O-])OCCc1ccc[n+](C)c1)OC(C)=O` (stereo not drawn) [U, 2-acetyloxy-3-hexadecyloxypropyl 1-methylpyridinio-3-ylethyl phosphate]: in the assay with platelet, a half-maximal response (EC50) required 85 nM. Moreover, the “MABP50 (dose required for reducing a mean blood pressure by 50 mmHg)” value in the assay with Male Wistar rats turned out to be 0.195 µg/kg.
Take “2-Acetyloxy-3-hexadecyloxypropyl 1-(1-fluorophenyl)-2-methylisoquinolinio-3-ylmethyl phosphate”: the “degree” value in assay [2] stood at 100%.
As to `CCCCCCCCCCCCCCCCOCC(COP(=O)([O-])OCC1CCC[N+]1(C)C)OC(C)=O` (stereo not drawn) [D, 2-acetyloxy-3-hexadecyloxypropyl 1,1-dimethylpyrrolidinio-2-ylmethyl phosphate], a half-maximal response in the assay with platelet (setting [3]) (EC50) required 0.5 nM. The ED (50 mmHg) in the assay on Male Wistar rats worked out at 0.024 µg/kg.
In the assay with platelet (setting [3]), `CCCCCCCCCCCCCCCCOCC(COP(=O)([O-])OCC1CSC(c2ccccc2)[N+]1(C)C)OC(C)=O` (single isomer, unassigned) [S(Product A), 2-acetyloxy-3-hexadecyloxypropyl 3,3-dimethyl-2-phenyl-1,3-thiazolidinio-4-ylmethyl phosphate] had an EC50 of 670 nM. The “MABP50 (dose required for reducing a mean blood pressure by 50 mmHg)” value in the assay on Male Wistar rats worked out at 0.16 µg/kg.
For `CCCCCCCCCCCCCCCCOCC(COP(=O)([O-])OC(c1ccccc1)C1CCC[N+]1(C)C)OCc1ccccc1` (stereo not drawn) [J, 2-Benzyloxy-3-hexadecyloxypropyl erythro-1,1-dimethylpyrrolidinio-2-ylphenylmethyl phosphate], in assay [2], the “degree” value is given as 99%.
`CCCCCCCCCCCCCCCCOCC(COP(=O)([O-])OCC1Cc2ccccc2C[N+]1(C)C)OC(C)=O` (stereo not drawn) [O, 2-acetyloxy-3-hexadecyloxypropyl 2,2-dimethyl-1,2,3,4-tetrahydroisoquinolinio-3-ylmethyl phosphate] yielded an EC50 with platelet (setting [3]) of 180 nM. Further, the ED (50 mmHg) with Male Wistar rats was 3.2 µg/kg.
Consider `CCCCCCCCCCCCCCCCOC(C)C(COP(=O)([O-])OCC1=CCC[N+](C)(C)C1)OC(C)=O` (stereo not drawn) [V, 2-acetyloxy-3-hexadecyloxybutyl 1,1-dimethyl-1,2,5,6-tetrahydropyridinio-3-ylmethyl phosphate], for which the EC50 in the assay on platelet (setting [3]) worked out at 77 nM. In addition, in assay [1] (3 mg/kg), the “Change” value was -49.0 mmHg. The ED (50 mmHg) in the assay on Male Wistar rats came out at 0.64 µg/kg.

The term EC50 denotes the concentration that produces a half-maximal response. Read a low EC50 as a more potent agent.
